The values that follow come from ChEMBL document CHEMBL1201862, “PubChem BioAssay data set” (2004).

Each structure is given as a SMILES string. Calls of active or inactive are those of the source.

One assay relates to H9c2. The assay can be described thus: cells. Format: functional, cell-based. To be noted: Rattus norvegicus, H9c2, Myocardium.
Assay [1] deals with T1, RNA-binding protein pos-1 (Caenorhabditis elegans, UniProt G5EF15).
T1 sequence (G5EF15 whole entry): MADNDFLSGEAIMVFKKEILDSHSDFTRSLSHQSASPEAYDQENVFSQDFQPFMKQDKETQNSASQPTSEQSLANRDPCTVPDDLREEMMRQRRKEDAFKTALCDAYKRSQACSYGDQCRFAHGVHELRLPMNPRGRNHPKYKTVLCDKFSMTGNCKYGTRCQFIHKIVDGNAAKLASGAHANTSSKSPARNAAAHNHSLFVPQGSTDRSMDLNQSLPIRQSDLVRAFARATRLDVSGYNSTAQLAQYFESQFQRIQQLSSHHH
The assay is described as follows: inhibitors of POS-1/mex-3 RNA binding, dose response, biochemical, fluorescence polarization (AID 1964).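 Further: purified POS-1 fused to maltose binding protein made in E. coli; potency of compounds blocking POS-1 binding to fluorescent RNA.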

Assay [2] has as its target T2, Zinc finger protein mex-5 (Caenorhabditis elegans, UniProt Q9XUB2).
T2 sequence (Q9XUB2 whole entry): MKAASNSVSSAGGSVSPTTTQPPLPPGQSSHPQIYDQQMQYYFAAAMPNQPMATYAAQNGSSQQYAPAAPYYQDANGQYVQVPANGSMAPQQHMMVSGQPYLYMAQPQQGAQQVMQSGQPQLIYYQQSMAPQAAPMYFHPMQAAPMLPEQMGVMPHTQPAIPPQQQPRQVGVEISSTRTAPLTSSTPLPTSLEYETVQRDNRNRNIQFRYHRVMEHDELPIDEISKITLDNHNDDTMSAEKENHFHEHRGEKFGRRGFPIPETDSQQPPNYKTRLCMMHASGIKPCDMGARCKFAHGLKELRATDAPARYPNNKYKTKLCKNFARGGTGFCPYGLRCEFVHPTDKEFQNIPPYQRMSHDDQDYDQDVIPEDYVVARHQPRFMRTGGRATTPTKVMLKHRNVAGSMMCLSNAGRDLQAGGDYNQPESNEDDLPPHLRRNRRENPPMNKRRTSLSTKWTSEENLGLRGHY
The assay is described as follows: MEX-5/TCR-2 RNA interaction inhibitors, dose response, biochemical, C. elegans, fluorescence polarization (AID 1960).

The target in assay [3] is T3, Calpain-2 catalytic subunit (Sus scrofa, UniProt P43367).
T3 sequence (P43367 whole entry): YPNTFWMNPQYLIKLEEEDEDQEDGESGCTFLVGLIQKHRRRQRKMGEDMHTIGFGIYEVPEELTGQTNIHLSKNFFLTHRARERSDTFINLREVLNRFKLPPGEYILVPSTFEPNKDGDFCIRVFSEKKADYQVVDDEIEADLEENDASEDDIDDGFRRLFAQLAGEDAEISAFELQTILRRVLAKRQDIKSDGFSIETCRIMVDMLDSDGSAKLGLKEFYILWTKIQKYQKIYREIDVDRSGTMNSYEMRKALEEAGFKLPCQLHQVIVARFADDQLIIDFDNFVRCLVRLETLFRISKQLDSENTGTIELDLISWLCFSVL
The assay can be described thus: pig calpain II inhibitor potency, dose response, biochemical, fluorogenic peptide substrate (AID 1420). Type of assay: functional.

Assay [4] deals with T4, Corticotropin-releasing factor receptor 2/Corticotropin-releasing factor-binding protein (Homo sapiens, UniProt P24387+Q13324).
T4 sequence (Q13324 whole entry): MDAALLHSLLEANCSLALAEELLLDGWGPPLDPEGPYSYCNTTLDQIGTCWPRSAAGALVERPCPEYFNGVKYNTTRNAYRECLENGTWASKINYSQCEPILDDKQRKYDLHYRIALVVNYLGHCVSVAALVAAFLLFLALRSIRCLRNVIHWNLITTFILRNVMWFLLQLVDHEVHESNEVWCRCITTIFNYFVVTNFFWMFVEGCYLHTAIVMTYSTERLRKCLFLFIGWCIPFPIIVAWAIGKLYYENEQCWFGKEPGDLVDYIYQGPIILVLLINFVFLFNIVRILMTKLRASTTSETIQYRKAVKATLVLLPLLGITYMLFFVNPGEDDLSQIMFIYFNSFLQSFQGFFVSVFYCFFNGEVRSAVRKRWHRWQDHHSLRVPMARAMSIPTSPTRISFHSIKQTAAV
T4 sequence (P24387 whole entry): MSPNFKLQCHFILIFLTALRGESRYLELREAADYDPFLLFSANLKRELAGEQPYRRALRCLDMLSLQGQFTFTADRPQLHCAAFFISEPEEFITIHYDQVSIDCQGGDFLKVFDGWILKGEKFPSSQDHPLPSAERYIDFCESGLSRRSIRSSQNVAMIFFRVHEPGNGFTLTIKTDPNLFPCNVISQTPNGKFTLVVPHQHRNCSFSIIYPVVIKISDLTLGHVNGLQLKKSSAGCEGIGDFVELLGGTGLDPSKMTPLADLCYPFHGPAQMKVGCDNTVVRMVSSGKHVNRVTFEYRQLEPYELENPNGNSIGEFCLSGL
The assay can be described thus: Dose Response confirmation of uHTS hits for small molecule antagonists of the CRF-binding protein and CRF-R2 receptor complex. Type of assay: functional. To be noted: read-out: IC50_Mean.

Assay [5] addresses T4, Corticotropin-releasing factor receptor 2/Corticotropin-releasing factor-binding protein. The assay is described as follows: activators of CRF receptor 2 with binding protein – uHTS hits, confirmation (AID 602473). Type of assay: functional. The note with it: read-out: EC50_Mean.
A short description of assay [6]: Luminescence Cell-Based Dose Confirmation HTS to Identify Activators of 5'UTR Stem-Loop Driven Alpha-Synuclein mRNA Translation in H4 Neuroglioblastoma Cells. [Related pubchem assays: 1829 (Project Summary), 1814 (Primary HTS)]. Type of assay: functional.
The nature of assay [7]: Luminescence Cell-Based Dose Response HTS to Identify Activators of Luciferase Translation or Activity in H4 […] Cells. [Related pubchem assays: 1829 (Project Summary), 1814 (Primary HTS)]. Format: functional.
The next assay concerns H4. The assay can be described thus: Luminescence Cell-Based Dose Response HTS to Identify Activators of 5'UTR Stem-Loop Driven Prion Protein mRNA Translation in H4 Neuroglioblastoma Cells. [Related pubchem assays: 1829 (Project Summary), 1814 (Primary HTS)]. Format: functional. To be noted: Homo sapiens.
In the next assay the target is Cytochrome P450 2C9 (Homo sapiens, UniProt P11712).

Broadly, the AC50 is the concentration giving half of the maximal activity seen.

Chain of Cytochrome P450 2C9 (P11712 whole entry): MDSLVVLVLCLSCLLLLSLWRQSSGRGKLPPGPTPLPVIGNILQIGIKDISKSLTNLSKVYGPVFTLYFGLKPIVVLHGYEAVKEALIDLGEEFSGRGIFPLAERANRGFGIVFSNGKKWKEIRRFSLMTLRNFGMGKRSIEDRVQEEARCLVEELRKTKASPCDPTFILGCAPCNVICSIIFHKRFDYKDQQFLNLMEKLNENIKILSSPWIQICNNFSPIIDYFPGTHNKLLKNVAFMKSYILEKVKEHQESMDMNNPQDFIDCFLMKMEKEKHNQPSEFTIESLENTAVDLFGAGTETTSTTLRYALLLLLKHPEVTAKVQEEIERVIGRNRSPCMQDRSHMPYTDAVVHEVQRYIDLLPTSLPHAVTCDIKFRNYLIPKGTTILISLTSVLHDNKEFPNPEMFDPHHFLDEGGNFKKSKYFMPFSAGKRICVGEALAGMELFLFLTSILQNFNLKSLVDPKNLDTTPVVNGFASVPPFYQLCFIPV

As for `COc1cccc(CN(C)C(=O)C(Cc2ccccc2)NC(=O)c2ccccc2)c1OC` (stereo not drawn), in the assay with H9c2, the IC50 is 6.93 µM (active).
As to `CCCCC1=CC2=CC(=O)C(C)(OC(=O)c3ccco3)C(=O)C2=CO1` (stereo not drawn), the EC50 in assay [1] is 20.5 µM (active); in assay [2] it was 16.2 µM (active).
With `CC(C)CCNC(=O)NC(=O)CSc1nnc(-c2ccccc2Br)o1`, the IC50 in [3] was > 50 µM (not active).
In the case of `O=C(O)CC1S/C(=N/N=C/c2ccc(Br)cc2)N(c2ccccc2)C1=O` (stereo not drawn), in [3], the IC50 is 9.55 µM (not active).
For the compound `Cc1cc2c3c(c1)C(C)CC(C)(C)N3C(=O)C2=O` (stereo not drawn), the EC50 in assay [1] and in assay [2] was > 300 µM (not active) in each case.
In the case of `CCc1cc(C(=O)Nc2ccc(OC)nc2)sc1C`, the figures for the EC50 in assay [1] and in [2] were 11.8 µM (active) and 9.29 µM (active), respectively.
For the compound `CCC(C)n1c(=N)c(C#N)cc2c(=O)n3cc(C)ccc3nc21` (stereo not drawn), the results for the EC50 in assay [1] and in assay [2] were > 300 µM (not active) and 254 µM (inconclusive), respectively.
On to `O=C1/C(=C/c2ccc(Br)cc2)Oc2cc(O)ccc21`, for which the EC50 in assay [1] is 7.71 µM (active); in [2], 6.67 µM (active).
Regarding `Oc1nc2cc3c(cc2cc1CN(Cc1nnnn1CC1CCCO1)C1CCCCC1)OCO3` (stereo not drawn), the IC50 with H9c2 was 27.5 µM (active).
Turning to `CC1(C)Cc2c(C#N)c(NCC3CCCO3)nc(-c3ccco3)c2CO1` (stereo not drawn), in [4], the IC50 is > 47.1 µM (inactive). The EC50 in assay [5] is > 53 µM (inactive).
For `CCOC(=O)c1c(NC(=O)COC(=O)Cc2nnc(O)c3ccccc23)sc(C(=O)NC)c1C`, the IC50 in the assay with H9c2 is > 79 µM (inactive).
Turning to `Cc1ccccc1N1CCN(C2CCCN(C(=O)c3cn4c(C)cccc4n3)C2)CC1` (stereo not drawn), the IC50 in [4] was > 47.1 µM (inactive). The EC50 in [5] is > 53 µM (inactive).
`CNC(=O)NC(=O)C(C)Oc1ccccc1F` (stereo not drawn): the IC50 in [3] is < 0.4 µM (not active).
For the compound `O=C(Nc1ccc2c(c1)OCO2)c1cnn2c(C(F)(F)F)cc(-c3ccco3)nc12`, in the assay on H9c2, the IC50 was > 79 µM (inactive).
On the same count and under the same terms, with `O=P(Nc1ccccc1)(Oc1ccccc1)Oc1ccccc1` the figure was > 79 µM (inactive).
Turning to `O=C(COc1ccccc1C(=O)c1cnn(-c2ccccc2)c1)Nc1ccc2ccccc2c1`, the EC50 is 5.67 µM (active) in [6], 6.97 µM (active) in assay [7], 7.44 µM (active) in the assay on H4 and > 53 µM (inactive) in [5]. Also, the IC50 in assay [4] was > 47.1 µM (inactive).
Take `CC(C)CC(=O)Nc1ccc(C(=O)COC(=O)Cc2nnc(O)c3ccccc23)cc1`: the IC50 with H9c2 is 18.4 µM (active).
Take `COc1ccc(OC)c(-c2cc(C(=O)O)c3cc4ccccc4cc3n2)c1`: the IC50 in [4] is > 47.1 µM (inactive). Besides, the EC50 in assay [5] is > 53 µM (inactive). In addition, the AC50 on Cytochrome P450 2C9 was 3.16 µM (inconclusive).
Regarding `CN(C)P(=O)(NC(=O)c1cccn1C)N(C)C`, the IC50 in assay [4] was > 47.1 µM (inactive). Moreover, the EC50 in [5] is > 53 µM (inactive).
As to `CSCc1cc(N2CCOCC2)nc(SCc2ccc(Cl)cc2Cl)n1`, the IC50 in assay [3] was 3.57 µM (not active).
Take `Cc1ccc(S(=O)(=O)NNC(=S)NC(=O)c2ccc([N+](=O)[O-])cc2)cc1`: the EC50 in assay [1] was 31.8 µM (active); in assay [2] it was 21.1 µM (active).
For `Oc1ccccc1CN(Cc1ccco1)CC(O)COCc1ccc(Cl)cc1` (stereo not drawn), in assay [3], the IC50 is on record as 7.83 µM (not active).
Regarding `C=CCOc1c(CNc2cccc(C(=O)O)c2)cccc1OCC`, the IC50 in assay [4] was > 47.1 µM (inactive). Besides, the EC50 in [5] was > 53 µM (inactive).
With `C=CCSc1nnc(N2C(=O)C(O)=C(C(=O)c3ccco3)C2c2ccccc2F)s1` (stereo not drawn), the EC50 in assay [1] is 48.3 µM (active); in assay [2] it was 54.8 µM (active).
Regarding `CC(C)CCN(C(=S)NC(=O)C1CCCCC1)c1c(N)n(Cc2ccccc2)c(=O)[nH]c1=O`, in [3], the IC50 is given as > 50 µM (not active).
Regarding `O=C(CSc1ccc2nnc(-c3ccncc3)n2n1)Nc1nccs1`, in assay [3], the IC50 is given as > 50 µM (not active).
As for `Cc1ccc(NC(=O)COC(=O)c2cccnc2Cl)cc1S(=O)(=O)N1CCOCC1`, the IC50 in assay [4] is > 47.1 µM (inactive). In addition, the EC50 in assay [5] was > 53 µM (inactive).
Regarding `CC1(C)C(=O)OC(c2c(F)c(F)c(F)c(F)c2F)C2(CCCCC2)C1=O` (stereo not drawn), in assay [3], the IC50 is listed as 4.17 µM (not active).
For the compound `CN1CCN(/C=N/C2=C(C#N)C(c3ccccc3)C3=C(CC(C)(C)CC3=O)O2)CC1` (stereo not drawn), the EC50 in [1] and in assay [2] was > 300 µM (not active) each time. The half-maximal activity concentration (AC50) at Cytochrome P450 2C9 was 14.1 µM (inconclusive).
For `COc1ccc(NS(=O)(=O)c2cc(NC(=O)Cc3nnc(O)c4ccccc34)ccc2OC)cc1`, the IC50 in the assay with H9c2 is > 79 µM (inactive).
In the case of `COc1ccc(CCNC(=O)C(=O)NCC2CCCN2S(=O)(=O)c2cc(C)ccc2C)cc1` (stereo not drawn), the IC50 with H9c2 was 34.1 µM (inactive).
`CCN(CC)c1nc(-c2nnn[nH]2)nc(N(CC)CC)n1`: the EC50 in assay [1] and in assay [2] was > 300 µM (not active) throughout.
For `C=CCO/C(O)=C1\C(C)=NC2(O)c3ccccc3C(=O)C12O` (stereo not drawn), in assay [4], the IC50 is > 47.1 µM (inactive). In addition, the EC50 in assay [5] is > 53 µM (inactive).
As for `CC1CCN(Cc2cnc(Cl)s2)CC1`, the IC50 in [3] is listed as 1.78 µM (not active).
As for `COC(=O)/C=C1/SC(NNC(=O)c2ccc(Cl)cc2Cl)=NC1=O`, in assay [4], the IC50 was > 47.1 µM (inactive). Also, the EC50 in assay [5] is > 53 µM (inactive).
As for `CCCCN1C(=O)NC(=O)/C(=C\NNC(=O)c2ccncc2)C1=O`, the EC50 in [1] and in [2] was > 300 µM (not active) throughout.
For `O=C(NC1CCCCC1)C(c1ccc2ncccc2c1)N(Cc1cccs1)C(=O)c1cccs1` (stereo not drawn), the IC50 in the assay with H9c2 is > 79 µM (inactive).
In the case of `COCCn1c(SCc2nnc(-c3ccccc3)o2)nc2sc3c(c2c1=O)CCC3`, in assay [4], the IC50 is > 47.1 µM (inactive). In addition, in assay [5], the EC50 was > 53 µM (inactive).
The like results for `COc1ccccc1Nc1ccc(S(=O)(=O)N2CCCCC2)cc1[N+](=O)[O-]` were, in that order, > 47.1 µM (inactive) and > 53 µM (inactive).
Turning to `CCCc1cc(=O)oc2c(CNc3ccc(OCC)cc3)c(O)ccc12`, the IC50 with H9c2 was > 79 µM (inactive).
As to `COc1cc(/C=N/n2nnnc2Nc2ccccc2)cc(OC)c1OC`, the IC50 in the assay with H9c2 was 12.4 µM (active).
In the case of `CN(C)S(=O)(=O)c1ccc2c(c1)nc(CCC(=O)NCc1ccc(Cl)cc1)n2C`, the IC50 in assay [3] was 6.82 µM (not active).
